In ChEMBL document CHEMBL1649310, “Complete nucleotide sequence of Klebsiella pneumoniae multidrug resistance plasmid pKP048, carrying blaKPC-2, blaDHA-1, qnrB4, and armA” (2010) one finds MIC data, which are given here for nine compounds.

What all share (assay type): functional
Experiment [1] has as its system Klebsiella pneumoniae. As to the kind of experiment: Antimicrobial activity against Klebsiella pneumoniae isolate 048 expressing beta-lactamase KPC-2, DHA-1, qnrB4 and armA by Etest.
The subject of experiment [2] is Escherichia coli. As to the kind of experiment: Antimicrobial activity against Escherichia coli isolate CKP048 transconjugant harboring beta-lactamase KPC-2, DHA-1, qnrB4 and armA by Etest.
Experiment [3] concerns Escherichia coli. As to the kind of experiment: Antimicrobial activity against lacZ-negative, Nalidixic acid-, rifampicin-resistant Escherichia coli EC600 by Etest.
The subject of experiment [4] is Klebsiella pneumoniae. Briefly: Antimicrobial activity against Klebsiella pneumoniae isolate 048 expressing beta-lactamase KPC-2, DHA-1, qnrB4 and armA by Etest in presence of beta-lactamase inhibitor Tazobactam.
In experiment [5] the test system is Escherichia coli. As to the kind of experiment: Antimicrobial activity against Escherichia coli isolate CKP048 transconjugant harboring beta-lactamase KPC-2, DHA-1, qnrB4 and armA by Etest in presence of beta-lactamase inhibitor Tazobactam.
For experiment [6], the system named is Escherichia coli. As to the kind of experiment: Antimicrobial activity against lacZ-negative, Nalidixic acid-, rifampicin-resistant Escherichia coli EC600 by Etest in presence of beta-lactamase inhibitor Tazobactam.

Converted amounts (≈) assume the structure as drawn. Where only a bound is given, the exact number is not on record here.

In the case of `NCC[C@H](O)C(=O)N[C@@H]1C[C@H](N)[C@@H](O[C@H]2O[C@H](CN)[C@@H](O)[C@H](O)[C@H]2O)[C@H](O)[C@H]1O[C@H]1O[C@H](CO)[C@@H](O)[C@H](N)[C@H]1O` [AMIKACIN], the figures for the minimum inhibitory concentration (MIC) with Klebsiella pneumoniae [1], against Escherichia coli [2] and against Escherichia coli [3] were above 256 µg/mL, above 256 µg/mL and 1 µg/mL (≈ 1.71 µM), respectively.

For the compound `C[C@@H](O)[C@H]1C(=O)N2C(C(=O)O)=C(SCCNC=N)C[C@H]12` [IMIPENEM ANHYDROUS], the MIC is above 32 µg/mL in the experiment with Klebsiella pneumoniae [1], 3 µg/mL (≈ 10 µM) against Escherichia coli [2] and 0.25 µg/mL (≈ 0.835 µM) against Escherichia coli [3].

For the compound `CN(C)c1cc(NC(=O)CNC(C)(C)C)c(O)c2c1C[C@H]1C[C@H]3[C@H](N(C)C)C(O)=C(C(N)=O)C(=O)[C@@]3(O)C(O)=C1C2=O` [TIGECYCLINE], the figures for the MIC with Klebsiella pneumoniae [1], against Escherichia coli [2] and in the experiment with Escherichia coli [3] were 0.38 µg/mL (≈ 0.649 µM), 0.125 µg/mL (≈ 0.213 µM) and 0.125 µg/mL (≈ 0.213 µM), respectively.

Turning to `C[C@@H](O)[C@H]1C(=O)N2C(C(=O)O)=C(S[C@@H]3CN[C@H](C(=O)Nc4cccc(C(=O)O)c4)C3)[C@H](C)[C@H]12`, the MIC amounted to 32 µg/mL (≈ 67.3 µM) in the experiment with Klebsiella pneumoniae [1], 8 µg/mL (≈ 16.8 µM) in the experiment with Escherichia coli [2] and 0.016 µg/mL (≈ 0.0336 µM) with Escherichia coli [3].

With `CCN1CCN(C(=O)N[C@@H](C(=O)N[C@@H]2C(=O)N3[C@@H]2SC(C)(C)[C@@H]3C(=O)O)c2ccccc2)C(=O)C1=O` [PIPERACILLIN], the MIC in the experiment with Klebsiella pneumoniae [4] was above 256 µg/mL; in the experiment with Escherichia coli [5], above 256 µg/mL; with Escherichia coli [6], 2 µg/mL.

On to `C[C@@H](O)[C@H]1C(=O)N2C(C(=O)O)=C(S[C@@H]3CN[C@H](C(=O)N(C)C)C3)[C@H](C)[C@H]12` [MEROPENEM], for which the MIC with Klebsiella pneumoniae [1] was above 32 µg/mL; against Escherichia coli [2], 2 µg/mL (≈ 5.22 µM); against Escherichia coli [3], 0.094 µg/mL (≈ 0.245 µM).

For the compound `CO[C@@]1(NC(=O)Cc2cccs2)C(=O)N2C(C(=O)O)=C(COC(N)=O)CS[C@@H]21` [CEFOXITIN], the figures for the MIC with Klebsiella pneumoniae [1], against Escherichia coli [2] and against Escherichia coli [3] were 256 µg/mL (≈ 599 µM), 128 µg/mL (≈ 299 µM) and 2 µg/mL (≈ 4.68 µM), respectively.

As to COLISTIN, the results for the MIC against Klebsiella pneumoniae [1], with Escherichia coli [2] and against Escherichia coli [3] were 0.38 µg/mL, 0.38 µg/mL and 0.25 µg/mL, respectively.

For `CC(C)(O/N=C(\C(=O)N[C@@H]1C(=O)N2C(C(=O)[O-])=C(C[n+]3ccccc3)CS[C@H]12)c1csc(N)n1)C(=O)O` [CEFTAZIDIME], the MIC against Klebsiella pneumoniae [1] worked out at 96 µg/mL (≈ 176 µM); with Escherichia coli [2], 32 µg/mL (≈ 58.5 µM); against Escherichia coli [3], 0.064 µg/mL (≈ 0.117 µM).

The MIC is the smallest concentration in the dilution series that meets the test's criterion for growth inhibition.
